Laboratory results as given in patent US10597388B2, “Pyridazinone herbicides” (FMC CORPORATION, priority 2014, dated 2020).

Legend:
Assay in all cases: Test D controlled growth environment herbicide test, pre- and postemergence
Format in all cases: in vivo
[1] = test system: wheat, spring (spring wheat, Triticum aestivum)
Procedure, shortened: (§1)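 Rating is visual, 0–100 scale (100 = complete control), made against untreated plants 14–21 d after treatment in controlled growth conditions. Postemergence sprays went onto 1- to 4-leaf plants in peat medium; preemergence sprays onto silt loam after sowing; formulation included a surfactant.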

[2] = test system: mustard, wild (wild mustard, Sinapis arvensis)
Procedure, shortened: as §1

[3] = test system: wheat, winter (winter wheat, Triticum aestivum)
Procedure, shortened: as §1

kochia (Kochia scoparia) = test system: kochia (Kochia scoparia)
Procedure, shortened: as §1

[4] = test system: deadnettle (henbit deadnettle, Lamium amplexicaule)
Procedure, shortened: as §1

[5] = test system: barley, spring (spring barley, Hordeum vulgare)
Procedure, shortened: as §1

[6] = test system: windgrass (Apera spica-venti)
Procedure, shortened: as §1

[7] = test system: foxtail, green (green foxtail, Setaria viridis)
Procedure, shortened: as §1

[8] = test system: pigweed (Amaranthus retroflexus)
Procedure, shortened: as §1

[9] = test system: bluegrass (annual bluegrass, Poa annua)
Procedure, shortened: as §1

[10] = test system: oat, wild (wild oat, Avena fatua)
Procedure, shortened: as §1

[11] = test system: field violet (Viola arvensis)
Procedure, shortened: as §1

[12] = test system: Russian thistle (Salsola kali)
Procedure, shortened: as §1

[13] = Postemergence, 31 g ai/ha, scale 0 to 100 (0 no effect, 100 complete control)
[14] = Postemergence, 125 g ai/ha, visual rating on scale 0 (no effect) to 100 (complete control), 14 to 21 d
[15] = Postemergence, 250 g ai/ha, scale 0 to 100 (0 no effect, 100 complete control)
[16] = Preemergence, 62 g ai/ha, scale 0 to 100 (0 no effect, 100 complete control)
[17] = Preemergence, 125 g ai/ha, scale 0 to 100 (0 no effect, 100 complete control)
[18] = Preemergence, 250 g ai/ha, scale 0 to 100 (0 no effect, 100 complete control)
[19] = postemergence, 62 g ai/ha, scale 0 to 100, 0 no effect, 100 complete control

Cc1ccc2ccc(C)c(-c3c(O)c(C)nn(C)c3=O)c2c1 [Compound 60]
Wheat, Spring plant response rating [1, 13]: 30 | Plant response rating, Wheat, Spring [1, 14]: 40 | Plant response rating, Wheat, Spring [1, 15]: 55 | Plant response rating (scale of 0 to 100), Wheat, Spring ([1]; Preemergence, 31 g ai/ha): 35 | Plant response rating, Wheat, Spring [1, 16]: 55 | Plant response rating, Wheat, Spring [1, 17]: 65 | Plant response rating, Wheat, Spring [1, 18]: 75 | Plant response rating, Wheat, Spring [1, 19]: 35 | Mustard, Wild plant response rating [2, 13]: 75 | Plant response rating, Mustard, Wild [2, 14]: 98 | Plant response rating, Mustard, Wild [2, 15]: 100 | Plant response rating (scale of 0 to 100), Mustard, Wild ([2]; Preemergence, 31 g ai/ha): 45 | Plant response rating, Mustard, Wild [2, 16]: 70 | Plant response rating, Mustard, Wild [2, 17]: 85 | Plant response rating, Mustard, Wild [2, 18]: 90 | Plant response rating, Mustard, Wild [2, 19]: 75 | Wheat, Winter plant response rating [3, 13]: 25 | Plant response rating, Wheat, Winter [3, 14]: 35 | Plant response rating, Wheat, Winter [3, 15]: 40 | Plant response rating (scale of 0 to 100), Wheat, Winter ([3]; Preemergence, 31 g ai/ha): 10 | Plant response rating, Wheat, Winter [3, 16]: 35 | Plant response rating, Wheat, Winter [3, 17]: 55 | Plant response rating, Wheat, Winter [3, 18]: 55 | Plant response rating, Wheat, Winter [3, 19]: 30 | Kochia plant response rating (kochia (Kochia scoparia); [13]): 70 | Plant response rating, Kochia (kochia (Kochia scoparia); [14]): 90 | Plant response rating, Kochia (kochia (Kochia scoparia); [15]): 95 | Plant response rating (scale of 0 to 100), Kochia (kochia (Kochia scoparia); Preemergence, 31 g ai/ha): 15 | Plant response rating, Kochia (kochia (Kochia scoparia); [16]): 20 | Plant response rating, Kochia (kochia (Kochia scoparia); [17]): 60 | Plant response rating, Kochia (kochia (Kochia scoparia); [18]): 75 | Plant response rating, Kochia (kochia (Kochia scoparia); [19]): 85 | Deadnettle plant response rating [4, 13]: 70 | Plant response rating, Deadnettle [4, 14]: 95 | Plant response rating, Deadnettle [4, 15]: 95 | Plant response rating (scale of 0 to 100), Deadnettle ([4]; Preemergence, 31 g ai/ha): 35 | Plant response rating, Deadnettle [4, 16]: 90 | Plant response rating, Deadnettle [4, 17]: 85 | Plant response rating, Deadnettle [4, 18]: 100 | Plant response rating, Deadnettle [4, 19]: 75 | Barley, Spring plant response rating [5, 13]: 15 | Plant response rating, Barley, Spring [5, 14]: 40 | Plant response rating, Barley, Spring [5, 15]: 50 | Plant response rating (scale of 0 to 100), Barley, Spring ([5]; Preemergence, 31 g ai/ha): 5 | Plant response rating, Barley, Spring [5, 16]: 10 | Plant response rating, Barley, Spring [5, 17]: 45 | Plant response rating, Barley, Spring [5, 18]: 60 | Plant response rating, Barley, Spring [5, 19]: 25 | Windgrass plant response rating [6, 13]: 80 | Plant response rating, Windgrass [6, 14]: 90 | Plant response rating, Windgrass [6, 15]: 98 | Plant response rating (scale of 0 to 100), Windgrass ([6]; Preemergence, 31 g ai/ha): 85 | Plant response rating, Windgrass [6, 16]: 90 | Plant response rating, Windgrass [6, 17]: 100 | Plant response rating, Windgrass [6, 18]: 100 | Plant response rating, Windgrass [6, 19]: 85 | Foxtail, Green plant response rating [7, 13]: 35 | Plant response rating, Foxtail, Green [7, 14]: 65 | Plant response rating, Foxtail, Green [7, 15]: 75 | Plant response rating (scale of 0 to 100), Foxtail, Green ([7]; Preemergence, 31 g ai/ha): 70 | Plant response rating, Foxtail, Green [7, 16]: 80 | Plant response rating, Foxtail, Green [7, 17]: 95 | Plant response rating, Foxtail, Green [7, 18]: 100 | Plant response rating, Foxtail, Green [7, 19]: 40 | Pigweed plant response rating [8, 13]: 75 | Plant response rating, Pigweed [8, 14]: 100 | Plant response rating, Pigweed [8, 15]: 100 | Plant response rating (scale of 0 to 100), Pigweed ([8]; Preemergence, 31 g ai/ha): 100 | Plant response rating, Pigweed [8, 16]: 100 | Plant response rating, Pigweed [8, 17]: 100 | Plant response rating, Pigweed [8, 18]: 100 | Plant response rating, Pigweed [8, 19]: 95 | Bluegrass plant response rating [9, 13]: 15 | Plant response rating, Bluegrass [9, 14]: 35 | Plant response rating, Bluegrass [9, 15]: 60 | Plant response rating (scale of 0 to 100), Bluegrass ([9]; Preemergence, 31 g ai/ha): 35 | Plant response rating, Bluegrass [9, 16]: 45 | Plant response rating, Bluegrass [9, 17]: 65 | Plant response rating, Bluegrass [9, 18]: 80 | Plant response rating, Bluegrass [9, 19]: 25 | Oat, Wild plant response rating [10, 13]: 85 | Plant response rating, Oat, Wild [10, 14]: 95 | Plant response rating, Oat, Wild [10, 15]: 100 | Plant response rating (scale of 0 to 100), Oat, Wild ([10]; Preemergence, 31 g ai/ha): 90 | Plant response rating, Oat, Wild [10, 16]: 95 | Plant response rating, Oat, Wild [10, 17]: 100 | Plant response rating, Oat, Wild [10, 18]: 100 | Plant response rating, Oat, Wild [10, 19]: 90 | Field Violet plant response rating [11, 13]: 80 | Plant response rating, Field Violet [11, 14]: 100 | Plant response rating, Field Violet [11, 15]: 85 | Plant response rating (scale of 0 to 100), Field Violet ([11]; Preemergence, 31 g ai/ha): 95 | Plant response rating, Field Violet [11, 16]: 100 | Plant response rating, Field Violet [11, 17]: 100 | Plant response rating, Field Violet [11, 18]: 100 | Plant response rating, Field Violet [11, 19]: 95 | Russian Thistle plant response rating [12, 13]: 80 | Plant response rating, Russian Thistle [12, 14]: 80 | Plant response rating, Russian Thistle [12, 15]: 85 | Plant response rating (scale of 0 to 100), Russian Thistle ([12]; Preemergence, 31 g ai/ha): 15 | Plant response rating, Russian Thistle [12, 16]: 20 | Plant response rating, Russian Thistle [12, 17]: 35 | Plant response rating, Russian Thistle [12, 18]: 70 | Plant response rating, Russian Thistle [12, 19]: 80
